Source: patent US5747466A, “3-deoxy-3-descladinose derivatives of erythromycins A and B” (Abbott Laboratories, priority 1996, dated 1998)

Experiments:
Experiment in all cases: In vitro antibacterial activity (MIC), agar dilution
ESCHERICHIA COLI H560 = format: cell-based; conditions: E. coli H560; BHI agar, 35-37 °C, 20-24 h
[1] = tested on: PSEUDOMONAS AERUGINOSA K799/WT; format: cell-based; conditions: P. aeruginosa K799/WT; BHI agar, 35-37 °C, 20-24 h
[2] = tested on: ENTEROBACTER AEROGENES ATCC 13048; format: cell-based; conditions: E. aerogenes ATCC 13048; BHI agar, 35-37 °C, 20-24 h
ESCHERICHIA COLI KNK 437 = format: cell-based; conditions: E. coli KNK 437; BHI agar, 35-37 °C, 20-24 h
ESCHERICHIA COLI DC-2 = format: cell-based; conditions: E. coli DC-2; BHI agar, 35-37 °C, 20-24 h
[3] = tested on: STAPHYLOCOCCUS AUREUS CMX 553; format: cell-based; conditions: S. aureus CMX 553; BHI agar, 35-37 °C, 20-24 h
[4] = tested on: NOCARDIA ARSTEROIDES ATCC 9970; format: cell-based; conditions: Nocardia ATCC 9970; BHI agar, 35-37 °C, 20-24 h
[5] = tested on: STAPHYLOCOCCUS AUREUS 1775; format: cell-based; conditions: S. aureus 1775; BHI agar, 35-37 °C, 20-24 h
[6] = tested on: PSEUDOMONAS AERUGINOSA DPHD-2862; format: cell-based; conditions: P. aeruginosa DPHD-2862; BHI agar, 35-37 °C, 20-24 h
[7] = tested on: STAPHYLOCOCCUS AUREUS NCTC10649M; format: cell-based; conditions: S. aureus NCTC10649M; BHI agar, 35-37 °C, 20-24 h
PSEUDOMONAS CEPACIA 296I = format: cell-based; conditions: P. cepacia 296I; BHI agar, 35-37 °C, 20-24 h
[8] = tested on: PROVIDENCIA STUARTII CMX 640; format: cell-based; conditions: P. stuartii CMX 640; BHI agar, 35-37 °C, 20-24 h
[9] = tested on: PSEUDOMONAS AERUGINOSA DPHD-5263; format: cell-based; conditions: P. aeruginosa DPHD-5263; BHI agar, 35-37 °C, 20-24 h
[10] = tested on: STAPHYLOCOCCUS AUREUS CMX 642A; format: cell-based; conditions: S. aureus CMX 642A; BHI agar, 35-37 °C, 20-24 h
M[…] ATCC 9341 = format: cell-based, Micrococcus luteus; conditions: M. luteus ATCC 9341; BHI agar, 35-37 °C, 20-24 h
Procedure: (§1) Representative compounds of the present invention were assayed in vitro for antibacterial activity as follows: Twelve petri dishes containing successive aqueous dilutions of the test compound mixed with 10 mL of sterilized Brain Heart Infusion (BHI) agar (Difco 0418-01-5) were prepared. Each plate was inoculated with 1:100 (or 1:10 for slow-growing strains, such as Micrococcus and Streptococcus) dilutions of up to 32 different microorganisms, using a Steers replicator block. The inoculated plates were incubated at 35°-37° C. for 20 to 24 hours. In addition, a control plate, using BHI agar containing no test compound, was prepared and incubated at the beginning and end of each test.
(§2) An additional plate containing a compound having known susceptibility patterns for the organisms being tested and belonging to the same antibiotic class as the test compound was also prepared and incubated as a further control, as well as to provide test-to-test comparability. Erythromycin A was used for this purpose.
(§3) After incubation, each plate was examined. The minimum inhibitory concentration (MIC) was defined as the lowest concentration of drug yielding no growth, a slight haze, or sparsely isolated colonies on the inoculum spot as compared to the growth control.

M[…] ATCC 4698 = format: cell-based, Micrococcus luteus; conditions: M. luteus ATCC 4698; BHI agar, 35-37 °C, 20-24 h
Procedure: as §1, §2, §3

[11] = tested on: PSEUDOMONAS AERUGINOSA BMH10; format: cell-based; conditions: P. aeruginosa BMH10; BHI agar, 35-37 °C, 20-24 h
ESCHERICHIA COLI SS = format: cell-based; conditions: E. coli SS; BHI agar, 35-37 °C, 20-24 h
[12] = tested on: STREPTOCOCCUS BOVIS A-5169; format: cell-based; conditions: S. bovis A-5169; BHI agar, 35-37 °C, 20-24 h
[13] = tested on: PSEUDOMONAS AERUGINOSA 5007; format: cell-based; conditions: P. aeruginosa 5007; BHI agar, 35-37 °C, 20-24 h
[14] = tested on: STREPTOCOCCUS PYOGENES EES61; format: cell-based; conditions: S. pyogenes EES61; BHI agar, 35-37 °C, 20-24 h
STR[…] 508 = format: cell-based, Streptococcus agalactiae; conditions: S. agalactiae CMX 508; BHI agar, 35-37 °C, 20-24 h
Procedure: as §1, §2, §3

[15] = tested on: MYCOBACTERIUM SMEGMATIS ATCC 114; format: cell-based; conditions: M. smegmatis ATCC 114; BHI agar, 35-37 °C, 20-24 h
[16] = tested on: STAPHYLOCOCCUS EPIDERMIDIS 3519; format: cell-based; conditions: S. epidermidis 3519; BHI agar, 35-37 °C, 20-24 h
EN[…] ATCC 8043 = format: cell-based, Enterococcus faecium; conditions: E. faecium ATCC 8043; BHI agar, 35-37 °C, 20-24 h
Procedure: as §1, §2, §3

[17] = tested on: STAPHYLOCOCCUS AUREUS ATCC 6538P; format: cell-based; conditions: S. aureus ATCC 6538P; BHI agar, 35-37 °C, 20-24 h

Compound	minimum inhibitory concentration (MIC) (ESCHERICHIA COLI H560)	minimum inhibitory concentration (MIC) [1]	minimum inhibitory concentration (MIC) [2]	minimum inhibitory concentration (MIC) (ESCHERICHIA COLI KNK 437)	minimum inhibitory concentration (MIC) (ESCHERICHIA COLI DC-2)	minimum inhibitory concentration (MIC) [3]	minimum inhibitory concentration (MIC) [4]	minimum inhibitory concentration (MIC) [5]	minimum inhibitory concentration (MIC) [6]	minimum inhibitory concentration (MIC) [7]	minimum inhibitory concentration (MIC) [8]	minimum inhibitory concentration (MIC) [9]	minimum inhibitory concentration (MIC) [10]	minimum inhibitory concentration (MIC) (M[…] ATCC 9341)	minimum inhibitory concentration (MIC) (M[…] ATCC 4698)	minimum inhibitory concentration (MIC) [11]	minimum inhibitory concentration (MIC) [12]	minimum inhibitory concentration (MIC) [13]	minimum inhibitory concentration (MIC) [14]	minimum inhibitory concentration (MIC) (STR[…] 508)	other results
CC[C@H]1OC(=O)[C@H](C)C[C@H](C)[C@@H](O[C@@H]2O[C@H](C)C[C@H](N(C)C)[C@H]2O)[C@](C)(OC)C[C@@H](C)C(=NO)[C@H](C)[C@@H](O)[C@]1(C)O [Ex. 2]	> 100	> 100	> 100	> 100	> 100	12.5	0.02	> 100	> 100	12.5	> 100	> 100	12.5	1.56	3.1	> 100	0.78	> 100	0.78	0.78	minimum inhibitory concentration (MIC) (PSEUDOMONAS CEPACIA 296I): > 100; minimum inhibitory concentration (MIC) (ESCHERICHIA COLI SS): 0.78; minimum inhibitory concentration (MIC) [15]: 6.2; minimum inhibitory concentration (MIC) [16]: 12.5; minimum inhibitory concentration (MIC) (EN[…] ATCC 8043): 3.1
CC[C@H]1OC(=O)[C@H](C)C[C@H](C)[C@@H](O[C@@H]2O[C@H](C)C[C@H](N(C)C)[C@H]2O)[C@](C)(OC)C[C@@H](C)C(=O)[C@H](C)[C@H]2N(CCCCc3ccccc3)C(=O)O[C@]12C [Ex. 4]	25	100	> 100	> 100	50	1.56	3.1	50	> 100	1.56	> 100	100	1.56	1.56	1.56	> 100	0.02	> 100	0.05	0.1	minimum inhibitory concentration (MIC) [17]: 1.56; minimum inhibitory concentration (MIC) (ESCHERICHIA COLI SS): 1.56; minimum inhibitory concentration (MIC) [15]: 1.56; minimum inhibitory concentration (MIC) [16]: 1.56; minimum inhibitory concentration (MIC) (EN[…] ATCC 8043): 0.39
CC[C@H]1OC(=O)[C@H](C)C[C@H](C)[C@@H](O[C@@H]2O[C@H](C)C[C@H](N(C)C)[C@H]2O)[C@](C)(OC)C[C@@H](C)C(=O)[C@H](C)[C@H]2N(CCc3ccc(Oc4ccccc4)cc3)C(=O)O[C@]12C [Ex. 5]	> 100	> 100	> 100	> 100	12.5	6.2	3.1	25	> 100	6.2	> 100	> 100	12.5	3.1	1.56	> 100	1.56	> 100	1.56	1.56	minimum inhibitory concentration (MIC) [17]: 12.5; minimum inhibitory concentration (MIC) (PSEUDOMONAS CEPACIA 296I): 100; minimum inhibitory concentration (MIC) [15]: 3.1; minimum inhibitory concentration (MIC) [16]: 12.5; minimum inhibitory concentration (MIC) (EN[…] ATCC 8043): 1.56
CC[C@H]1OC(=O)[C@H](C)C[C@H](C)[C@@H](O[C@@H]2O[C@H](C)C[C@H](N(C)C)[C@H]2O)[C@](C)(OC)C[C@@H](C)C(=NOC)[C@H](C)[C@@H](O)[C@]1(C)O [Ex. 6]	50	> 100	> 100	25	0.78	6.2	0.78	> 100	> 100	6.2	100	50	6.2	0.39	0.39	> 100	0.39	> 100	0.39	0.39	minimum inhibitory concentration (MIC) [17]: 6.2; minimum inhibitory concentration (MIC) (PSEUDOMONAS CEPACIA 296I): 12.5; minimum inhibitory concentration (MIC) [15]: 3.1; minimum inhibitory concentration (MIC) [16]: 12.5; minimum inhibitory concentration (MIC) (EN[…] ATCC 8043): 0.78
